Consider 13 compounds from ChEMBL document CHEMBL1944601, “N-(4-Substituted-benzoyl)-N'-(β-d-glucopyranosyl)ureas as inhibitors of glycogen phosphorylase: Synthesis and evaluation by kinetic, crystallographic, and molecular modelling methods” (Bioorg Med Chem, 2012).

The structures appear in SMILES notation.

For the first test, the target named is T1, Glycogen phosphorylase, muscle form (Oryctolagus cuniculus, UniProt P00489).
T1 sequence (P00489 whole entry): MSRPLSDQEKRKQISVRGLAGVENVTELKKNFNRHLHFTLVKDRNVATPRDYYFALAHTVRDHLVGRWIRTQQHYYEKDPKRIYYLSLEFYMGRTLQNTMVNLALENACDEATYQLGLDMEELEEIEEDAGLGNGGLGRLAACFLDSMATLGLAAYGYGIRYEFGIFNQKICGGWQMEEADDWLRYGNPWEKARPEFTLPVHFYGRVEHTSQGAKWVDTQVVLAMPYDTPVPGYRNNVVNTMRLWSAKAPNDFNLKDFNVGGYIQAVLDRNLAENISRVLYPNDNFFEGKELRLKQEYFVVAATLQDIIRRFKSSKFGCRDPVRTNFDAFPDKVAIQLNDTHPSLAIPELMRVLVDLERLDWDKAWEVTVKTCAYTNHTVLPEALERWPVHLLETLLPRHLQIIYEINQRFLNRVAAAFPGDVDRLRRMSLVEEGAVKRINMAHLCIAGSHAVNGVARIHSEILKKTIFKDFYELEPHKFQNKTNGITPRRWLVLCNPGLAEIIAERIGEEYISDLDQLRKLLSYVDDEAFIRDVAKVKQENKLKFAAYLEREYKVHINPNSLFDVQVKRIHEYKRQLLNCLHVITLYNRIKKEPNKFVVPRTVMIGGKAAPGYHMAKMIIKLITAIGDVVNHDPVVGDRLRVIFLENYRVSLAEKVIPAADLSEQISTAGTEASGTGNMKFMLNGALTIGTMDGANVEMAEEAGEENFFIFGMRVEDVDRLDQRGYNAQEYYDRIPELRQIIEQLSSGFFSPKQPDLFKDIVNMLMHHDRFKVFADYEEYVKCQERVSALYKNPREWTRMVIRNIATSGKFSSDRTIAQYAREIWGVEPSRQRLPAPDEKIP
Description: (§1) Inhibition of rabbit muscle glycogen phosphorylase b assessed as inorganic phosphate release at pH 6.8
Broadly, the Ki is a dissociation constant, usually derived from enzyme kinetics or from competition with a known ligand. Low values mean a stronger hold on the target, high ones a looser hold on the target. With `O=C(N[C@H]1O[C@H](CO)[C@@H](O)[C@H](O)[C@H]1O)C(F)(F)F`, the Ki entry is reported as “Not Active”.

The target of a further test is T1, Glycogen phosphorylase, muscle form. This is another data set of the same source.
Description: as §1
For the compound `O=C(N[C@@H]1O[C@H](CO)[C@@H](O)[C@H](O)[C@H]1O)C(F)(F)F`, the inhibition constant (Ki) amounted to 75 µM.

Turning to `O=C(NC(=O)c1ccc(C(=O)OCc2ccccc2)cc1)N[C@@H]1O[C@H](CO)[C@@H](O)[C@H](O)[C@H]1O`, the affinity corresponds to a Ki of 150 µM.

For `O=C(NC(=O)c1ccc(C(=O)O)cc1)N[C@@H]1O[C@H](CO)[C@@H](O)[C@H](O)[C@H]1O`, the Ki was found to be 85 µM.

The compound `O=C(NC(=O)c1ccc(-c2ccccc2)cc1)N[C@@H]1O[C@H](CO)[C@@H](O)[C@H](O)[C@H]1O` showed a Ki of 3.7 µM.

In turn, `NC(=O)NC1O[C@H](CO)[C@@H](O)[C@H](O)[C@H]1O` (single isomer, unassigned) returned an inhibition constant (Ki) of 140 µM.

With `O=C(NC(=O)c1ccc(Cl)cc1)N[C@@H]1O[C@H](CO)[C@@H](O)[C@H](O)[C@H]1O`, the affinity, expressed as Ki, was 4.4 µM.

Compound `O=C(O)CCC(=O)N[C@@H]1O[C@H](CO)[C@@H](O)[C@H](O)[C@H]1O` displayed a Ki of 20 µM.

`COC(=O)c1ccc(C(=O)NC(=O)N[C@@H]2O[C@H](CO)[C@@H](O)[C@H](O)[C@H]2O)cc1` showed a Ki of 4 µM.

As for `COc1ccc(C(=O)NC(=O)N[C@@H]2O[C@H](CO)[C@@H](O)[C@H](O)[C@H]2O)cc1`, the Ki amounted to 3.2 µM.

As for `CC(=O)NC(=O)N[C@@H]1O[C@H](CO)[C@@H](O)[C@H](O)[C@H]1O`, the Ki amounted to 370 µM.

Compound `COC(=O)N[C@@H]1O[C@H](CO)[C@@H](O)[C@H](O)[C@H]1O` showed a Ki of 210 µM.

Compound `[N-]=[N+]=NCC(=O)N[C@@H]1O[C@H](CO)[C@@H](O)[C@H](O)[C@H]1O` returned a Ki of 49 µM.
